Measurements published in article PMC6944458, “Intracellular and in vivo evaluation of imidazo[2,1-b]thiazole-5-carboxamide anti-tuberculosis compounds” (PLoS ONE, 2020).
≈ marks a conversion by molar mass, not a printed value. Where “and” joins values, the source holds several entries; their conditions need not be identical. Equal entries are not always repeated. Where two headings read alike, the source gives them in different places.

What was measured:
[1] = cited from earlier work
H37Rv-Mtb = test: MIC against replicating H37Rv-Mtb in liquid media; format: cell-based, Mycobacterium tuberculosis; details: for MIC: replicating, 5 days, OD590
VERO cell line = test: Eukaryotic cytotoxicity (CellTiter-Glo); format: cell-based, African green monkey; details: Chlorocebus sabaeus, 48 h, 2-day incubation, read-out: VERO Toxicity IC50
Description: Cytotoxicity was tested against the African green monkey adult kidney cell line (VERO, ATCC CRL-1586) as described. Compounds were tested as 10-point, 3-fold serial dilutions in DMSO (final assay concentration of 1% DMSO) and viability was measured using CellTiter-Glo (Promega). Inhibition curves were fitted using the Levenberg–Marquardt algorithm. IC50 was defined as the concentration required to reduce cell viability by 50% after 2-day incubation.

[2] = test system: M. tuberculosis GC1237 (Mtb-GFP) in Raw 264.7 macrophages; test: Intracellular mycobacterial replication assay in macrophages; format: cell-based; details: Mycobacterium tuberculosis, 120 h, 5 days, read-out: MIC, intracellular M. tuberculosis growth in macrophages
[3] = test system: M. tuberculosis GC1237 (Mtb-GFP) in Raw 264.7 macrophages; details: cited from earlier work
[4] = cited from earlier work; remark: listed apart in the source
M. tuberculosis Erdman = test: Chronic Balb/c model of TB infection; format: in vivo, Balb/c mice; details: 25 mg/kg
replicating Mtb = details: against three family strains; cited from earlier work
[5] = test system: M. tuberculosis strain H37Rv-LUX; test: microbe, parasite or virus in culture; format: cell-based; details: Mycobacterium tuberculosis, read-out: LORA MIC
[6] = test system: murine Raw 264.7 macrophages; details: mouse
physchem = details: pH 6.8, aqueous buffer, kinetic from dmso stock
Description: The relative solubility of compounds was determined in microbiological medium using turbidity as a measure [27]. A serial dilution of compounds was prepared in DMSO and then transferred to microbiological medium at pH 6.8.

[7] = in vivo; cited from earlier work
[8] = Mycobacterium tuberculosis, H37RV, 120 h

SMILES: O=C(/C=C/c1cccs1)N1CCN(Cc2ccc3c(c2)OCO3)CC1 [AX-35]
- MIC [1]: 0.14 μM and 0.05 μg/mL

SMILES: C[C@H]1COC2(CCN(c3nc(=O)c4cc(C(F)(F)F)cc([N+](=O)[O-])c4s3)CC2)O1 [BTZ043, reference compound]
- MIC (H37Rv-Mtb; [8]): 0.002 µM (≈ 0.000863 µg/mL)
- IC50 (VERO cell line): > 50 µM
- MIC [2]: 0.0078 µM (≈ 0.00336 µg/mL)
- MIC, intracellular, previous reports [3]: < 0.098 µM

SMILES: NC(=O)c1sc(N2CCOCC2)cc1OCCc1ccc(OC(F)(F)F)cc1 [Compound 6]
- MIC [4]: 0.2 µM (≈ 0.0833 µg/mL)

SMILES: NNC(=O)c1ccncc1 [INH, Isoniazid]
- Log reduction vs Control (Lung) (M. tuberculosis Erdman; 4 weeks): 1.73 log10 CFU
- Log reduction vs Control (Spleen) (M. tuberculosis Erdman; 4 weeks): 2.87 log10 CFU
- Lung Log10 CFU ±SEM (M. tuberculosis Erdman; ERDMAN, 672 h): 4.06 ± 0.11 Log10 CFU
- Spleen Log10 CFU ±SEM (M. tuberculosis Erdman; ERDMAN, 672 h): 2.13 ± 0.12 Log10 CFU

SMILES: Cc1c(OCC(F)(F)F)ccnc1CSc1nc2ccccc2[nH]1 [LPZS]
- IC90 (replicating Mtb): 1.1 to 1.7 µM

SMILES: Cc1cn2c(C(=O)NCc3ccc4c(c3)CCO4)c(C)nc2s1 [ND-11459, N-((2,3-Dihydrobenzofuran-5-yl)methyl)-2,6-dimethylimidazo[2,1-b]thiazole-5-carboxamide]
- MIC [5]: 12.4 µM (≈ 4.06 µg/mL)
- IC50 (VERO cell line): > 50 µM
- MIC [2]: 1.25 to 2.5 µM (≈ 0.409 to 0.819 µg/mL)
- Macrophage toxicity concentration relative to MIC [6]: 4 and 8-fold higher than their MIC
- solubility (physchem): ≥ 200 µM

SMILES: CCc1nc2sc(C)cn2c1C(=O)NCc1ccc2c(c1)CCO2 [ND-11503, N-((2,3-Dihydrobenzofuran-5-yl)methyl)-6-ethyl-2-methylimidazo[2,1-b]thiazole-5-carboxamide]
- MIC (H37Rv-Mtb; [8]): 0.25 to 0.54 µM (≈ 0.0854 to 0.184 µg/mL)
- MIC (H37Rv-Mtb): 0.25 µM (≈ 0.0854 µg/mL)
- MIC [5]: 2.7 µM (≈ 0.922 µg/mL)
- IC50 (VERO cell line): > 50 µM
- MIC [2]: 1.25 to 2.5 µM (≈ 0.427 to 0.854 µg/mL)
- solubility (physchem): ≥ 200 µM

SMILES: Cc1cn2c(C(=O)NCc3ccc(Oc4cccc(C(F)(F)F)c4)cc3)c(C)nc2s1 [ND-11564, 2,6-Dimethyl-N-(4-(3-(trifluoromethyl)phenoxy)benzyl)imidazo[2,1-b]thiazole-5-carboxamide]
- MIC (H37Rv-Mtb; [8]): 0.16 µM (≈ 0.0713 µg/mL)
- MIC (H37Rv-Mtb): 0.16 µM (≈ 0.0713 µg/mL)
- MIC [5]: 9.68 µM (≈ 4.31 µg/mL)
- IC50 (VERO cell line): > 50 µM
- MIC [2]: 0.25 µM (≈ 0.111 µg/mL)
- Macrophage toxicity concentration relative to MIC [6]: 4 and 8-fold higher than their MIC
- solubility (physchem): 100 µM (≈ 44.5 µg/mL)

SMILES: Cc1cn2c(C(=O)Nc3ccc(Oc4cccc(C(F)(F)F)c4)cc3)c(C)nc2s1 [ND-11566, 2,6-Dimethyl-N-(4-(3-(trifluoromethyl)phenoxy)phenyl)imidazo[2,1-b]thiazole-5-carboxamide]
- Fold difference in potency, anilide vs benzylic amide ND-11564 (H37Rv-Mtb; MIC H37Rv-Mtb comparison): > 50 fold
- MIC (H37Rv-Mtb; [8]): 9.1 µM (≈ 3.93 µg/mL)
- MIC (H37Rv-Mtb): 9.10 µM (≈ 3.93 µg/mL)
- MIC [5]: > 100 µM
- IC50 (VERO cell line): > 50 µM
- solubility (physchem): 50 µM (≈ 21.6 µg/mL)

SMILES: Cc1cn2c(C(=O)NCc3ccc(N4CCS(=O)(=O)CC4)c(F)c3)c(C)nc2s1 [ND-11903, N-(4-(1,1-Dioxidothiomorpholino)-3-fluorobenzyl)-2,6-dimethylimidazo[2,1-b]thiazole-5-carboxamide]
- Fold less active than the most potent lipophilic compounds (ND-11543, ND-11564) (H37Rv-Mtb; MIC H37Rv-Mtb comparison): > 100 fold
- MIC (H37Rv-Mtb; [8]): 3.7 µM (≈ 1.62 µg/mL)
- MIC [5]: 200 µM (≈ 87.3 µg/mL)
- IC50 (VERO cell line): > 50 µM
- solubility (physchem): > 200 µM

SMILES: Cc1cn2c(C(=O)NCc3ccc(N4CCS(=O)(=O)CC4)cc3)c(C)nc2s1 [ND-12015, N-(4-(1,1-Dioxidothiomorpholino)benzyl)-2,6-dimethylimidazo[2,1-b]thiazole-5-carboxamide]
- Fold less active than the most potent lipophilic compounds (ND-11543, ND-11564) (H37Rv-Mtb; MIC H37Rv-Mtb comparison): > 100 fold
- MIC (H37Rv-Mtb; [8]): 13 µM (≈ 5.44 µg/mL)
- IC50 (VERO cell line): > 50 µM
- solubility (physchem): 200 µM (≈ 83.7 µg/mL)

SMILES: CCc1nc2sc(C)cn2c1C(=O)NCc1ccc(Oc2cccc(C(F)(F)F)c2)nc1 [ND-12024, 6-Ethyl-2-methyl-N-((6-(3-(trifluoromethyl)phenoxy)yridine-3-yl)methyl)imidazo[2,1-b]thiazole-5-carboxamide]
- MIC (H37Rv-Mtb; [8]): 0.21 µM (≈ 0.0967 µg/mL)
- IC50 (VERO cell line): > 50 µM
- solubility (physchem): 50 µM (≈ 23 µg/mL)

SMILES: Cc1cn2c(C(=O)NCc3ccc(Oc4cccc(C(F)(F)F)c4)nc3)c(C)nc2s1 [ND-12025, 2,6-Dimethyl-N-((6-(3-(trifluoromethyl)phenoxy)yridine-3-yl)methyl)imidazo[2,1-b]thiazole-5-carboxamide]
- MIC (H37Rv-Mtb; [8]): 0.33 µM (≈ 0.147 µg/mL)
- IC50 (VERO cell line): > 50 µM
- solubility (physchem): 100 µM (≈ 44.6 µg/mL)

SMILES: CCc1nc2ccc(Cl)cn2c1C(=O)NCc1ccc(N2CCC(c3ccc(OC(F)(F)F)cc3)CC2)cc1 [Q203]
- MIC (H37Rv-Mtb; [8]): 0.005 µM (≈ 0.00279 µg/mL)
- MIC [5]: 1.3 µM (≈ 0.724 µg/mL)
- IC50 (VERO cell line): > 50 µM
- MIC [2]: 0.0078 µM (≈ 0.00434 µg/mL)
- MIC, intracellular, previous reports [3]: < 0.098 µM
- solubility (physchem): 100 µM (≈ 55.7 µg/mL)
- AUC 0–24 [7]: 44,100 ng·hr/mL
